Measurements: US12390435B2, “Electrophiles and electrophile pro-drugs as RAD51 inhibitors” (University of Pittsburgh—Of the Commonwealth System of …, priority 2018, dated 2025)

Key:
Type in all cases: cell-based
[1] = system: RAD51 foci in MDA-MB-231 cells; test: RAD51 foci and γH2AX immunofluorescence after 5 Gy IR
Procedure: To analyze RAD51 foci formation, 10,000 cells were plated to CultureWell 16-well chambered cover glass (MIDSCI) coated with poly-L-lysine (Sigma) and incubated overnight in 5% FBS media. […] Cells were fixed with 10% formalin for 20 min at 4° C. and immunostained with RAD51 (Santa Cruz) or γH2AX (EMD Biosciences) antibodies. Z-stack images were acquired using a Nikon AIR confocal microscope with 60× oil objective and acquisition performed using NIS elements software. Quantification of z-stacks and foci were completed using ImageJ software.
Data represent the mean±SEM from 3 independent experiments unless otherwise noted. A p value<0.05 was considered statistically significant. Non-linear curves were generated in GraphPad Prism 7.0 (GraphPad Software, La Jolla, CA, USA) for statistical analysis. EC50 values and standard error were calculated from three independent experiments utilizing a non-linear dose response variable slope model. Significance was tested by one-way ANOVA for multiple groups with Tukey posttest or by t-test when groups were less than three. RAD51 foci number was analyzed with ImageJ. Nuclear boundaries were individually identified in more than 50 cells per treatment group in three independent experiments.

MCF-10A cells [2] = test: FACS cell cycle analysis; details: 5 μM, 24 hr
Procedure: (§1) Adherent and nonadherent cells were collected, centrifuged at 2000×rpm for 10 min, washed with ice-cold phosphate-buffered saline, fixed with cold 70% ethanol at 4° C. for 30 mins, and stained with 50 μg/mL propidium iodide (Sigma-Aldrich). FACS analysis was performed at the University of Pittsburgh Department of Immunology Unified Flow Core Facility. Three individual experiments were done, and statistical comparisons among phases (G0/G1, S, and G2/M) were determined by one-way analysis of variance followed by Tukey post-test.

[3] = system: MDA-MB-231 and MDA-MB-468 cells; test: FACS cell cycle analysis; details: 5 μM, 24 hr
Procedure: as §1

MCF-10A cells [4] = test: GSH and GSSG LC-MS/MS; details: 5 μM, 0 to 12 hr
Procedure: (§2) MCF-10A, MDA-MB-231, and MDA-MB-468 cells were seeded in 24-well plates at a density of 3×10^5 cells/well. […] At each time point, cell media was aspirated and washed 2 times with sterile PBS. Cells were then incubated with PBS containing 25 mM N-ethylmaleimide (NEM) for 15 min at 37° C. Derivatizing solution (50 μL of 15% MeOH, 40 mM HEPES, 50 mM NaCl, 1 mM EDTA, 2 μM [^13C2^15N]-GSH, 2 μM [^13C4^15N2]-GSSG, and 25 mM NEM) was added to each well and incubated for 15 min at room temperature. Next, 50 μL, of 10% (w/v) sulfosalicylic acid solution was immediately added to each well to stabilize GSH and GSSG. Supernatant was collected by centrifugation at 15,000 RPM for 10 min at 4° C. Samples were diluted 1:5 in 5% sulfosalicylic acid and 20 μL, was injected for HPLC-MS/MS analysis. Cell numbers at time 0 hr were quantitated by Hoechst 33258 DNA stain assay and used to normalized GSH or GSSG levels expressed as nmol/cells (×10^6).
(§3) Samples were applied to the column at 30% B and eluted with a linear increase in solvent B (30-100% in 9.7 min). The column was washed at 100% B for 3 min before returning to initial conditions for equilibration (2 min). […] Sample [GSH] and [GSSG] were determined from analyte:I.S. area ratios, and intracellular GSH and GSSG were normalized to cell number (10^6), with results expressed as nmol GSH or GSSG per 10^6 cells.

[5] = system: MDA-MB-231 and MDA-MB-468 cells; test: GSH and GSSG LC-MS/MS; details: 5 μM, 0 to 12 hr
Procedure: as §2, §3

SMILES: CCCCCCCCC(=CCCCCCCCC(=O)O)[N+](=O)[O-] [NO2-OA, 10-nitro-octadec-9-enoic acid]
- RAD51 foci formation ([1]; 5 μM, 6 h): inhibited RAD51 foci formation
- nuclear γH2AX localization ([1]; versus vehicle): significantly increased nuclear γH2AX localization
- cell cycle phase populations (G0/G1, S, G2/M) (MCF-10A cells [2]): not affected
- cell cycle phase distribution [3]: significantly increased the percentage of cells at G2/M phase
- GSH:GSSG ratio after treatment (MCF-10A cells [4]): maintained the GSH:GSSG ratio over the first 6 hr
- GSH:GSSG ratio after treatment [5]: rapidly decreased
